According to patent US10745346B2, “Agonists of protein tyrosine phosphatase SHP-1” (priority 2015, dated 2020):

Key:
[1] = biological target: Recombinant SHP-1 protein (Homo sapiens, UniProt P29350); experiment: SHP-1 phosphatase activity assay (RediPlate 96 EnzChek Tyrosine Phosphatase Assay kit); format: biochemical; conditions: SC derivatives at 1 μM for 2 hr; recombinant SHP-1 25 ng; control DMSO = 100; mean±SD (N=3)
Method: Effects of SC Derivatives on Phosphatase Activity in Recombinant SHP-1 RediPlate 96 EnzChek Tyrosine Phosphatase Assay kit (R-22067) was used for SHP-1 activity assay (Molecular Probes). Recombinant SHP-1 protein (25 ng) was reacted with SC derivatives at 1 μM for 2 hr. Then the SHP-1 phosphatase activity assay was performed according to the user's manual and the absorbance was measured at 465 nm. The control group was DMSO, which functioned as the solvent of the SC derivatives. The values were expressed by mean±SD (N=3).

[2] = system: PLC5 cells (a hepatocellular carcinoma cell line); experiment: Cytotoxicity, MTT cell viability assay; format: cell-based; conditions: 72 h exposure
Method: PLC5 cells (a hepatocellular carcinoma cell line) were seeded at 5×10^3 cells per well in 96-well plates. Then, cells were exposed to SC derivatives at the indicated doses for 72 h. After that, cells were incubated with MTT (1 mg/ml) (Sigma-Aldrich, St. Louis, Mo.) for 2 h at 37° C. Cell viability was then assessed by measuring the absorbance at 570 nm using a microplate reader.

Sequence of Recombinant SHP-1 protein (P29350 whole entry): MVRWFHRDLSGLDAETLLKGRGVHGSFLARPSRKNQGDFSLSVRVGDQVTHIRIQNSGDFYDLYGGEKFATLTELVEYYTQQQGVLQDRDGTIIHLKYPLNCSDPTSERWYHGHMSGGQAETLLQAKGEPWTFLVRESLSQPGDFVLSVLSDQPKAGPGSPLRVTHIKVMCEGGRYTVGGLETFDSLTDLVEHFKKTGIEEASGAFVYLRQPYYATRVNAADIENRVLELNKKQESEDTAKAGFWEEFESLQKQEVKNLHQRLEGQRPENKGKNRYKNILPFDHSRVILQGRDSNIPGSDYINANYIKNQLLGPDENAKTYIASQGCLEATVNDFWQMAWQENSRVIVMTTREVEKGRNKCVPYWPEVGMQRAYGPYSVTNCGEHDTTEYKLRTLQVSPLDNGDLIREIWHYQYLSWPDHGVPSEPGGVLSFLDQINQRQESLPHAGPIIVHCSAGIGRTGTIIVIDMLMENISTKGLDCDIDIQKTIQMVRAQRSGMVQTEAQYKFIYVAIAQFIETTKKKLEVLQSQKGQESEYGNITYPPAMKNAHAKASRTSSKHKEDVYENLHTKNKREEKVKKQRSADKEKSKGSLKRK

SMILES | SHP-1 Activity (% of control) [1] | IC50 [2]
Cc1ccc(NC(=O)Nc2ccc(CC#N)cc2)cc1Oc1ccc(C#N)cc1 [compound 135, 1-(4-(cyanomethyl)phenyl)-3-(3-(4-cyanophenoxy)-4-methylphenyl)urea] | 153.32 ± 14.65 % of control | 1850 nM
N#Cc1ccc(Oc2cc(NC(=O)Nc3ccc(F)c(C(F)(F)F)c3)ccc2Cl)cc1 [compound 137, 1-(4-chloro-3-(4-cyanophenoxy)phenyl)-3-(4-fluoro-3-(trifluoromethyl)phenyl)urea] | 180.35 ± 35 % of control | 490 nM
N#Cc1ccc(Oc2cc(NC(=O)Nc3cccc(C(F)(F)F)c3)ccc2Cl)cc1 [compound 138, 1-(4-chloro-3-(4-cyanophenoxy)phenyl)-3-(3-(trifluoromethyl)phenyl)urea] | 196.54 ± 22.4 % of control | 570 nM
N#Cc1ccc(Oc2cc(NC(=O)Nc3ccc(Cl)c(C(F)(F)F)c3)ccc2Cl)cc1 [compound 139, 1-(4-chloro-3-(4-cyanophenoxy)phenyl)-3-(4-chloro-3-(trifluoromethyl)phenyl)urea] | 280.62 ± 16.62 % of control | 310 nM
C#Cc1cccc(NC(=O)Nc2ccc(Cl)c(Oc3ccc(C#N)cc3)c2)c1 [compound 140, 1-(4-chloro-3-(4-cyanophenoxy)phenyl)-3-(3-ethynylphenyl)urea] | 140.81 ± 2.48 % of control | 830 nM
N#Cc1ccc(Oc2ccc(Cl)c(NC(=O)Nc3cc(C(F)(F)F)cc(C(F)(F)F)c3)c2)cc1 [compound 141, 1-(3,5-bis(trifluoromethyl)phenyl)-3-(2-chloro-5-(4-cyanophenoxy)phenyl) urea] | 273.26 ± 86.35 % of control | 280 nM
N#Cc1ccc(Oc2ccc(Cl)c(NC(=O)Nc3ccc(Cl)c(C(F)(F)F)c3)c2)cc1 [compound 142, 1-(4-chloro-3-(trifluoromethyl)phenyl)-3-(2-chloro-5-(4-cyanophenoxy)phenyl)urea] | 249.66 ± 5.81 % of control | 450 nM
N#Cc1ccc(Oc2ccc(Cl)c(NC(=O)Nc3ccc(F)c(C(F)(F)F)c3)c2)cc1 [compound 143, 1-(2-chloro-5-(4-cyanophenoxy)phenyl)-3-(4-fluoro-3-(trifluoromethyl)phenyl)urea] | 198.37 ± 32.5 % of control | 610 nM
C#Cc1cccc(NC(=O)Nc2cc(Oc3ccc(C#N)cc3)ccc2F)c1 [compound 144, 1-(5-(4-cyanophenoxy)-2-fluorophenyl)-3-(3-ethynylphenyl)urea] | 159.94 ± 30.14 % of control | 1790 nM
N#Cc1ccc(Oc2ccc(F)c(NC(=O)Nc3ccc(F)c(C(F)(F)F)c3)c2)cc1 [compound 145, 1-(5-(4-cyanophenoxy)-2-fluorophenyl)-3-(4-fluoro-3-(trifluoromethyl)phenyl)urea] | 168.15 ± 1.97 % of control | 850 nM
N#CCc1ccc(NC(=O)Nc2cc(Oc3ccc(C#N)cc3)ccc2F)cc1 [compound 146, 1-(4-(cyanomethyl)phenyl)-3-(5-(4-cyanophenoxy)-2-fluorophenyl)urea] | 139.68 ± 6.63 % of control | 2590 nM
N#Cc1ccc(Oc2cc(NC(=O)Nc3cc(C(F)(F)F)cc(C(F)(F)F)c3)ccc2Cl)cc1 [compound 148, 1-(3,5-bis(trifluoromethyl)phenyl)-3-(4-chloro-3-(4-cyanophenoxy)phenyl) urea] | 363.95 ± 18.11 % of control | 220 nM
N#CCc1ccc(NC(=O)Nc2ccc(Cl)c(Oc3ccc(C#N)cc3)c2)cc1 [compound 149, 1-(4-chloro-3-(4-cyanophenoxy)phenyl)-3-(4-(cyanomethyl)phenyl)urea] | 140.90 ± 6.65 % of control | 1380 nM
C#Cc1cccc(NC(=O)Nc2ccc(F)c(Oc3ccc(C#N)cc3)c2)c1 [compound 150, 1-(3-(4-cyanophenoxy)-4-fluorophenyl)-3-(3-ethynylphenyl)urea] | 129.59 ± 59 % of control | 2230 nM
N#Cc1ccc(Oc2cc(NC(=O)Nc3cccc(C(F)(F)F)c3)ccc2F)cc1 [compound 151, 1-(3-(4-cyanophenoxy)-4-fluorophenyl)-3-(3-(trifluoromethyl)phenyl)urea] | 136.00 ± 9.09 % of control | 590 nM
N#Cc1ccc(Oc2cc(NC(=O)Nc3cc(C(F)(F)F)cc(C(F)(F)F)c3)ccc2F)cc1 [compound 152, 1-(3,5-bis(trifluoromethyl)phenyl)-3-(3-(4-cyanophenoxy)-4-fluorophenyl) urea] | 336.99 ± 50.76 % of control | 340 nM
N#CCc1ccc(NC(=O)Nc2ccc(F)c(Oc3ccc(C#N)cc3)c2)cc1 [compound 153, 1-(4-(cyanomethyl)phenyl)-3-(3-(4-cyanophenoxy)-4-fluorophenyl)urea] | 135.54 ± 5.11 % of control | 1830 nM
N#Cc1ccc(Oc2cc(NC(=O)Nc3ccc(F)c(C(F)(F)F)c3)ccc2F)cc1 [compound 154, 1-(3-(4-cyanophenoxy)-4-fluorophenyl)-3-(4-fluoro-3-(trifluoromethyl)phenyl)urea] | 115.12 ± 3.84 % of control | 620 nM
N#Cc1ccc(Oc2ccc3c(c2)N(C(=O)Nc2ccc(F)c(C(F)(F)F)c2)CCO3)cc1 [compound 156, 6-(4-cyanophenoxy)-N-(4-fluoro-3-(trifluoromethyl)phenyl)-2H-benzo[b][1,4]oxazine-4(3H)-carboxamide] | 112.47 ± 7.98 % of control | 1870 nM
N#Cc1ccc(Oc2ccc3c(c2)N(C(=O)Nc2ccc(Cl)c(C(F)(F)F)c2)CCO3)cc1 [compound 157, N-(4-chloro-3-(trifluoromethyl)phenyl)-6-(4-cyanophenoxy)-2H-benzo[b][1,4]oxazine-4(3H)-carboxamide] | 106.27 ± 6.28 % of control | 1760 nM
N#Cc1ccc(Oc2ccc3c(c2)N(C(=O)Nc2cc(C(F)(F)F)cc(C(F)(F)F)c2)CCO3)cc1 [compound 158, N-(3,5-bis(trifluoromethyl)phenyl)-6-(4-cyanophenoxy)-2H-benzo[b][1,4]oxazine-4(3H)-carboxamide] | 102.07 ± 3.47 % of control | 3310 nM
N#Cc1ccc(Oc2ccc3c(c2)N(C(=O)Nc2cccc(C(F)(F)F)c2)CCO3)cc1 [compound 159, 6-(4-cyanophenoxy)-N-(3-(trifluoromethyl)phenyl)-2H-benzo[b][1,4]oxazine-4(3H)-carboxamide] | 98.04 ± 8.80 % of control | 2560 nM
N#CCc1ccc(NC(=O)N2CCOc3ccc(Oc4ccc(C#N)cc4)cc32)cc1 [compound 160, N-(4-(cyanomethyl)phenyl)-6-(4-cyanophenoxy)-2H-benzo[b][1,4]oxazine-4(3H)-carboxamide] | 116.47 ± 6.60 % of control | 5130 nM
C#Cc1cccc(NC(=O)N2CCOc3ccc(Oc4ccc(C#N)cc4)cc32)c1 [compound 161, 6-(4-cyanophenoxy)-N-(3-ethynylphenyl)-2H-benzo[b][1,4]oxazine-4(3H)-carboxamide] | 140.58 ± 11.39 % of control | > 10000 nM
C#Cc1cccc(NC(=O)N2CCOc3cc(Oc4ccc(C#N)cc4)ccc32)c1 [compound 162, 7-(4-cyanophenoxy)-N-(3-ethynylphenyl)-2H-benzo[b][1,4]oxazine-4(3H)-carboxamide] | 141.39 ± 15.44 % of control | 3060 nM
N#Cc1ccc(Oc2ccc3c(c2)OCCN3C(=O)Nc2cccc(C(F)(F)F)c2)cc1 [compound 163, 7-(4-cyanophenoxy)-N-(3-(trifluoromethyl)phenyl)-2H-benzo[b][1,4]oxazine-4(3H)-carboxamide] | 142.36 ± 2.16 % of control | 2510 nM
N#Cc1ccc(Oc2ccc3c(c2)OCCN3C(=O)Nc2cc(C(F)(F)F)cc(C(F)(F)F)c2)cc1 [compound 164, N-(3,5-bis(trifluoromethyl)phenyl)-7-(4-cyanophenoxy)-2H-benzo[b][1,4]oxazine-4(3H)-carboxamide] | 83.70 ± 10.90 % of control | > 10000 nM
N#Cc1ccc(Oc2ccc3c(c2)OCCN3C(=O)Nc2ccc(Cl)c(C(F)(F)F)c2)cc1 [compound 165, N-(4-chloro-3-(trifluoromethyl)phenyl)-7-(4-cyanophenoxy)-2H-benzo[b][1,4]oxazine-4(3H)-carboxamide] | 169.27 ± 1.19 % of control | > 10000 nM
N#Cc1ccc(Oc2ccc3c(c2)OCCN3C(=O)Nc2ccc(F)c(C(F)(F)F)c2)cc1 [compound 166, 7-(4-cyanophenoxy)-N-(4-fluoro-3-(trifluoromethyl)phenyl)-2H-benzo[b][1,4]oxazine-4(3H)-carboxamide] | 51.89 ± 8.16 % of control | 1320 nM
N#CCc1ccc(NC(=O)N2CCOc3cc(Oc4ccc(C#N)cc4)ccc32)cc1 [compound 167, N-(4-(cyanomethyl)phenyl)-7-(4-cyanophenoxy)-2H-benzo[b][1,4]oxazine-4(3H)-carboxamide] | 110.58 ± 10.14 % of control | 2550 nM
